In the RepoRT retention time repository (doi:10.1007/s00216-021-03828-0):
Where a name gives a salt, the structure may show the parent alone.

Tests used:
Conditions in all cases: stereoisomer not certain
[1] = RP, Merck Supelco Ascentis Express C18, 100 × 2.1 mm, 2 µm, 40 °C, 0.4 mL/min, estimated dead time 0.55 min; A: water + 0.1% formic acid, pH 3; B: acetonitrile + 0.1% formic acid, pH 3; gradient (min/%B) 0/5 2/5 17/99.9 20/99.9
[2] = RP, Merck Supelco Ascentis Express C18, 100 × 2.1 mm, 2 µm, 40 °C, 0.25 mL/min, estimated dead time 0.88 min; A: water + 0.1% formic acid, pH 3; B: acetonitrile + 0.1% formic acid, pH 3; gradient (min/%B) 0/5 2/5 17/99.9 20/99.9
[3] = RP, Merck Supelco Ascentis Express C18, 100 × 2.1 mm, 2 µm, 40 °C, 0.2 mL/min, estimated dead time 1.1 min; A: water + 0.1% formic acid, pH 3; B: acetonitrile + 0.1% formic acid, pH 3; gradient (min/%B) 0/5 2/5 17/99.9 20/99.9
[4] = RP, Merck Supelco Ascentis Express C18, 100 × 2.1 mm, 2 µm, 40 °C, 0.35 mL/min, estimated dead time 0.63 min; A: water + 0.1% formic acid, pH 3; B: acetonitrile + 0.1% formic acid, pH 3; gradient (min/%B) 0/5 2/5 17/99.9 20/99.9
[5] = RP, Merck Supelco Ascentis Express C18, 100 × 2.1 mm, 2 µm, 40 °C, 0.4 mL/min, estimated dead time 0.55 min; A: water + 0.1% formic acid, pH 3; B: acetonitrile + 0.1% formic acid, pH 3; gradient (min/%B) 0/5 2/5 17/99.9 20/99.9; remark: listed apart in the source
[6] = RP, Merck Supelco Ascentis Express C18, 100 × 2.1 mm, 2 µm, 40 °C, 0.2 mL/min, estimated dead time 1.1 min; A: water + 0.1% formic acid, pH 3; B: acetonitrile + 0.1% formic acid, pH 3; gradient (min/%B) 0/5 2/5 17/99.9 20/99.9; remark: listed apart in the source
[7] = RP, Merck Supelco Ascentis Express C18, 100 × 2.1 mm, 2 µm, 39 °C, 0.3 mL/min, estimated dead time 0.73 min; A: water + 0.1% formic acid, pH 3; B: acetonitrile + 0.1% formic acid, pH 3; gradient (min/%B) 0/5 2/5 17/99.9 20/99.9

SMILES | LC retention time [1] [min] | LC retention time [2] [min] | LC retention time [3] [min] | LC retention time [4] [min] | LC retention time [5] [min] | LC retention time [6] [min] | LC retention time [7] [min]
CC(CCC(=O)O)C(=O)O (stereo not given) [2-METHYLGLUTARATE] | 2.05 | 3.27 | 3.99 | 2.33 | 2.02 |  | 
CC(=CC(=O)O)C(=O)O [2-METHYLMALEATE] | 0.99 |  | 2.44 | 1.35 | 1.16 | 2.46 | 
CCCCCCCCCC(C)=O [2-UNDECANONE] |  |  | 9.69 | 8.4 | 8.13 |  | 
O=C(O)C(O)c1ccc(O)c(O)c1 (stereo not given) [3,4 DIHYDROXYMANDELATE] |  |  | 1.41 | 0.79 | 0.677 |  | 
OCC(O)c1ccc(O)c(O)c1 (stereo not given) [3,4-DIHYDROXYPHENYLGLYCOL] |  |  | 1.39 | 0.783 | 0.663 |  | 
O=Cc1cccc(O)c1 [3-HYDROXYBENZALDEHYDE] |  |  | 5.47 | 3.94 | 3.59 |  | 
OCc1cccc(O)c1 [3-HYDROXYBENZYL ALCOHOL] |  |  | 3.97 | 2.33 | 2.02 |  | 
COc1cc(C(O)C(=O)O)ccc1O (stereo not given) [3-METHOXY-4-HYDROXYMANDELATE] |  |  | 2.12 | 1.21 | 1.04 |  | 
CCC(C)C(=O)C(=O)O (stereo not given) [3-METHYL-2-OXOVALERATE] |  |  | 4.64 | 2.96 | 2.54 |  | 
Nc1ccc(C(=O)O)cc1 [4-AMINOBENZOATE] |  |  | 5.87 | 4.3 | 3.93 |  | 
COc1cc(C(O)CO)ccc1O (stereo not given) [4-HYDROXY-3-METHOXYPHENYLGLYCOL] |  |  |  | 1.21 | 1.07 |  | 
O=C(O)CCCCC(=O)O [ADIPATE] | 2.04 | 3.27 | 3.99 | 2.33 | 2.02 |  | 
Nc1ccccc1C(=O)O [ANTHRANILATE] |  |  | 5.87 | 4.29 | 3.93 |  | 
CCCCCCCCCCCCCCCCCCCC(=O)O [ARACHIDATE] |  |  |  | 18.3 | 17.9 |  | 
CCCCCCCC(=O)O [CAPRYLATE] | 8.82 | 10 |  | 9.28 |  | 10.7 | 9.52
CC(O)(CC(=O)O)C(=O)O (stereo not given) [CITRAMALATE] | 0.76 |  | 1.49 | 0.86 | 0.717 |  | 
CCCCCCCCCC(=O)O [DECANOATE] | 10.8 | 12 | 12.8 |  |  | 12.7 | 11.5
Nc1ncnc2c1ncn2C1CC(O)C(CO)O1 (stereo not given) [DEOXYADENOSINE] | 0.667 | 1.09 |  | 0.77 |  | 1.38 | 0.883
CC(CCC(=O)O)C1CCC2C3CCC4CC(O)CCC4(C)C3CC(O)C12C (stereo not given) [DEOXYCHOLATE] |  |  |  | 10.8 |  |  | 
CCOC(=O)C(=O)C(C)C(=O)OCC (stereo not given) [DIETHYL 2-METHYL-3-OXOSUCCINATE] |  |  | 6.29 | 4.92 |  |  | 
CCC=CCC=CCC=CCC=CCC=CCC=CCCC(=O)O [DOCOSAHEXAENOATE] | 14.5 | 15.8 | 16.5 | 14.8 | 14.5 |  | 
Cc1cn(C2CC(O)C(COP(=O)(O)OP(=O)(O)OC3OC(CO)C(O)C(O)C3O)O2)c(=O)[nH]c1=O [DTDP-D-GLUCOSE] |  |  |  |  | 0.667 |  | 

SMILES | LC retention time [1] [min] | LC retention time [2] [min] | LC retention time [3] [min] | LC retention time [4] [min] | LC retention time [5] [min] | LC retention time [6] [min] | LC retention time [7] [min]
CCCCCCCCC=CCCCCCCCCCCCC(=O)O [ERUCATE] |  |  |  | 18.2 | 17.8 |  | 
OCC(O)C(O)CO (stereo not given) [ERYTHRITOL] |  |  |  | 0.997 | 0.87 |  | 
Cc1cc2nc3c(=O)[nH]c(=O)nc-3n(CC(O)C(O)C(O)COP(=O)(O)OP(=O)(O)OCC3OC(n4cnc5c(N)ncnc54)C(O)C3O)c2cc1C (stereo not given) [FAD] |  |  | 4.67 | 3.77 | 3.63 |  | 
CCCCCC=CCC=CCC=CCCCCC(=O)O [GAMMA-LINOLENATE] |  |  | 16.2 | 14.5 | 14.1 |  | 
Nc1nc2c(ncn2C2OC(COP(=O)(O)OP(=O)(O)OC3OC(CO)C(O)C(O)C3O)C(O)C2O)c(=O)[nH]1 (stereo not given) [GUANOSINE DIPHOSPHATE MANNOSE] |  |  |  | 0.757 |  |  | 
Nc1nc2c(ncn2C2OC(CO)C(O)C2O)c(=O)[nH]1 (stereo not given) [GUANOSINE] | 0.667 | 1.09 | 1.36 | 0.757 |  | 1.37 | 0.89
CCCCCCC(=O)O [HEPTANOATE] |  |  | 6.69 | 5.36 |  |  | 
O=S(=O)(O)Oc1c[nH]c2ccccc12 [INDOXYL SULFATE] |  |  |  | 3.57 | 3.2 |  | 
C=C(CC(=O)O)C(=O)O [ITACONATE] | 1.21 |  | 2.44 | 1.35 | 1.14 | 2.46 | 
CC(C)CC(=O)C(=O)O [KETOLEUCINE] |  |  | 4.65 | 0.88 | 0.77 |  | 
Nc1ccccc1C(=O)CC(N)C(=O)O (stereo not given) [KYNURENINE] |  |  |  |  | 1.05 |  | 
CCCCCC=CCC=CCCCCCCCC(=O)O [LINOLEATE] | 13.1 |  | 17 | 15.3 |  |  | 
COC(=O)c1ccc(O)c(OC)c1 [METHYL VANILLATE] |  |  | 5.99 | 3.91 | 3.63 |  | 
COC(=O)CCCC(=O)O [MONOMETHYLGLUTARATE] |  |  | 3.99 | 2.33 | 2.02 |  | 
CCCCCCCCC(=O)[O-] [NONANOATE] | 9.85 | 11.1 | 11.7 |  |  | 11.7 | 10.5
O=C(O)CCCC(=O)C(=O)O [OXOADIPATE] | 0.667 |  | 1.48 | 0.833 | 0.707 |  | 
CCCCCCC=CCCCCCCCC(=O)[O-] [PALMITOLEATE] | 14.6 | 15.9 | 16.7 |  | 14.5 | 16.7 | 15.3
c1ncc2[nH]cnc2n1 [PURINE] |  | 1.07 | 1.34 | 0.757 |  | 1.35 | 
Oc1ccccc1O [PYROCATECHOL] | 1.55 | 3.05 |  | 1.78 | 1.52 |  | 
CC1NCCc2cc(O)c(O)cc21 (stereo not given) [SALSOLINOL] |  |  | 1.44 | 0.82 | 0.68 |  | 
O=C(O)CCC(=O)O [SUCCINATE] |  |  | 1.49 | 0.827 | 0.73 |  | 
CC(CCC(=O)O)C1CCC2C3C(O)CC4CC(O)CCC4(C)C3CCC12C (stereo not given) [URSODEOXYCHOLATE] |  |  | 12.2 | 10.8 | 10.5 |  | 
